Data taken from publication PMC7187626 (Antimicrobial Agents and Chemotherapy, 2019).
Like-named read-outs stand apart in the source and are kept apart here.

Experiments:
[1] = tested on: P. falciparum blood-stage malaria parasites; details: monotherapy, cited from earlier work
[2] = Noncompartmental pharmacokinetic analysis of plasma concentrations after single oral dose of artefenomel and DSM265 in combination; assay type: in vivo, human; details: for Cmax / AUC(0-t) / AUC(0-inf) / Vd/F / Tmax / half-life: human, plasma
Description: Plasma samples were analyzed by liquid chromatography-tandem mass spectrometry (HPLC-MS/MS) as previously described ([2], [4]). The PK parameters determined using noncompartmental analysis were the maximum plasma concentration (Cmax), the time point when Cmax was reached (tmax), the area under the concentration-time curve up to last time point measure (AUC0–last), the area under the concentration-time curve extrapolated to infinity (AUC0–∞), the elimination half-life (t1/2), the apparent clearance (CL/F), and the apparent volume of distribution associated with the terminal elimination phase, where F is bioavailability (Vz/F). The PD variables of interest in this study were the parasite reduction ratio (PRR) and parasite clearance half-life. These provide an estimate of the efficacy of an antimalarial treatment; with the former being the ratio of the parasite density decrease over a 48-h period (expressed as the log10 transformed cohort-specific PRR48 [log10 PRR48]). Noncompartmental PK analysis was performed using PKanalix (version 2019R1, Lixoft SAS, Abtony, France). The area under the concentration-time curve was determined using the linear log trapezoidal method in which linear calculation was used before maximum concentration (Cmax) and logarithmic formula for after Cmax. The slope of the terminal elimination phase (λz) was estimated via a linear regression between log concentrations and time. All parameters were summarized using geometric mean or median and range.

[3] = oral, cohort 1 (n = 8), 200 mg artefenomel plus 100 mg DSM265, plasma, read-out: Cmax, range
[4] = oral, cohort 1 (n = 8), 200 mg artefenomel plus 100 mg DSM265, read-out: AUC0–last, geometric mean
[5] = oral, cohort 1 (n = 8), 200 mg artefenomel plus 100 mg DSM265, read-out: AUC0–last, range
[6] = oral, cohort 1 (n = 8), 200 mg artefenomel plus 100 mg DSM265, read-out: AUC0–∞, geometric mean
[7] = oral, cohort 1 (n = 8), 200 mg artefenomel plus 100 mg DSM265, read-out: AUC0–∞, range
[8] = oral, cohort 1 (n = 8), 200 mg artefenomel plus 100 mg DSM265, read-out: Vz/F (apparent volume of distribution, terminal phase), geometric mean
[9] = oral, cohort 1 (n = 8), 200 mg artefenomel plus 100 mg DSM265, read-out: Vz/F, range
[10] = oral, cohort 1 (n = 8), 200 mg artefenomel plus 100 mg DSM265, read-out: tmax, median
[11] = oral, cohort 1 (n = 8), 200 mg artefenomel plus 100 mg DSM265, read-out: tmax, range
[12] = oral, cohort 2 (n = 5), 200 mg artefenomel plus 50 mg DSM265, plasma, read-out: Cmax, range
[13] = oral, cohort 2 (n = 5), 200 mg artefenomel plus 50 mg DSM265, read-out: AUC0–last, geometric mean
[14] = oral, cohort 2 (n = 5), 200 mg artefenomel plus 50 mg DSM265, read-out: AUC0–last, range
[15] = oral, cohort 2 (n = 5), 200 mg artefenomel plus 50 mg DSM265, read-out: AUC0–∞, geometric mean
[16] = oral, cohort 2 (n = 5), 200 mg artefenomel plus 50 mg DSM265, read-out: AUC0–∞, range
[17] = oral, cohort 2 (n = 5), 200 mg artefenomel plus 50 mg DSM265, read-out: Vz/F (apparent volume of distribution, terminal phase), geometric mean
[18] = oral, cohort 2 (n = 5), 200 mg artefenomel plus 50 mg DSM265, read-out: Vz/F, range
[19] = oral, cohort 2 (n = 5), 200 mg artefenomel plus 50 mg DSM265, read-out: tmax, median
[20] = oral, cohort 2 (n = 5), 200 mg artefenomel plus 50 mg DSM265, read-out: tmax, range
[21] = po, cohort 1 (n = 8), single oral dose 200 mg artefenomel plus 100 mg DSM265, plasma, read-out: Cmax, geometric mean
[22] = po, cohort 2 (n = 5), single oral dose 200 mg artefenomel plus 50 mg DSM265, plasma, read-out: Cmax, geometric mean
[23] = cohort 1 (n = 8), 200 mg artefenomel plus 100 mg DSM265
[24] = cohort 2 (n = 5), 200 mg artefenomel plus 50 mg DSM265

Row | SMILES | Cmax [2, 3] [ng/mL] | AUC(0-t) [2, 4] [µg·h/mL] | AUC(0-t) [2, 5] [µg·h/mL] | AUC(0-inf) [2, 6] [µg·h/mL] | AUC(0-inf) [2, 7] [µg·h/mL] | Vd/F [2, 8] [L] | Vd/F [2, 9] [L] | Tmax [2, 10] [h] | Tmax [2, 11] [h] | Cmax [2, 12] [ng/mL] | AUC(0-t) [2, 13] [µg·h/mL] | AUC(0-t) [2, 14] [µg·h/mL] | AUC(0-inf) [2, 15] [µg·h/mL] | AUC(0-inf) [2, 16] [µg·h/mL] | Vd/F [2, 17] [L] | Vd/F [2, 18] [L] | Tmax [2, 19] [h] | Tmax [2, 20] [h] | Cmax [2, 21] [ng/mL] | Cmax [2, 22] [ng/mL] | also measured
1 | c1cc([C@H]2CC[C@]3(CC2)OO[C@]2(O3)C3CC4CC(C3)CC2C4)ccc1OCCN1CCOCC1 [Artefenomel] | 150 to 597 | 3.01 | 1.11 to 4.96 | 3.08 | 1.11 to 5.09 | 8900 | 4810 to 16000 | 3 | 2 to 5 | 307 to 522 | 3.25 | 2.66 to 5.7 | 3.32 | 2.68 to 5.91 | 7990 | 4590 to 14300 | 5 | 1 to 6 | 372 | 412 | recrudescence ([1]; single dose 200 mg): recrudescence occurred in all subjects; recrudescence, subjects ([1]; single dose 500 mg): 50%
2 | Cc1cc(Nc2ccc(S(F)(F)(F)(F)F)cc2)n2nc(C(C)(F)F)nc2n1 [DSM265] | 4150 to 6880 | 434 | 329 to 502 | 514 | 360 to 634 | 28 | 22 to 42 | 2 | 1 to 3 | 2150 to 4340 | 232 | 209 to 281 | 271 | 240 to 309 | 26 | 19 to 34 | 2 | 1 to 2 | 5440 | 3580 | parasite clearance half-life ([1]; single dose 150 mg): 9.4 h; recrudescence ([1]; single dose 150 mg): recrudescence occurred in all subjects; parasite clearance half-life ([1]; single dose 400 mg): 5.2 h; recrudescence ([1]; single dose 400 mg): no recrudescence occurred; CL/F (apparent clearance), geometric mean [2, 23]: 0.19 L/h; CL/F, range [2, 23]: 0.16 to 0.28 L/h; CL/F (apparent clearance), geometric mean [2, 24]: 0.18 L/h; CL/F, range [2, 24]: 0.16 to 0.21 L/h; half-life ([2]; oral, cohort 1 (n = 8), 200 mg artefenomel plus 100 mg DSM265, read-out: t1/2 (elimination half-life), geometric mean (converted)): 4.17 days; half-life ([2]; oral, cohort 1 (n = 8), 200 mg artefenomel plus 100 mg DSM265, read-out: t1/2, range): 3.17 to 7.71 days; half-life ([2]; oral, cohort 2 (n = 5), 200 mg artefenomel plus 50 mg DSM265, read-out: t1/2 (elimination half-life), geometric mean (converted)): 4.04 days; half-life ([2]; oral, cohort 2 (n = 5), 200 mg artefenomel plus 50 mg DSM265, read-out: t1/2, range): 3.12 to 5.58 days
